Laboratory results reported in US11357971B2, “Ion pump with hyperbranched polymers” (OBOE IPR AB, priority 2016, dated 2022).

How the values were obtained:
[1] = reported in literature (ref. 13); cited from earlier work
[2] = system: Arabidopsis thaliana seedlings (root apical meristem); assay: Root growth rate of A. thaliana seedlings during OEIP delivery; type: in vivo; conditions: for effect on root growth rate: OEIP delivery, 60 min, compared with non-targeted seedlings
Description: The dPG-based OEIPs were used for in vivo experiments on a highly accessible model plant system suitable for live-cell imaging in the intact organism. Specifically, the apical root meristem and early elongation zone of four-day-old Arabidoposis thaliana seedlings positioned on agar gel were targeted for delivery of IAA via the OEIP. Root tips were monitored using a horizontally oriented Nikon AZ100 spectral macro-confocal laser-scanning microscope system schematically illustrated in FIG. 3a. In this arrangement, seedlings were positioned and imaged vertically.
As a negative control, benzoic acid^15 was delivered by the OEIP device, operated in the same configuration.
(§1) To this end, seeds of both genotypes and wild-type Col-0 were surface sterilized with 70% ethanol for 1 min, incubated in pool cleaner (Biltema, Sweden; one tablet per 2000 ml H2O) for 12 min, and washed four times with sterile, distilled water (dH2O). After 3 days at 4° C. in the dark, seeds were plated and grown on ½ Murashige and Skoog (MS) (Duchefa Biochemie, Haarlem, The Netherlands), 0.5 g/L 2-(N-morpholino)ethanesulfonic acid (MES, Sigma-Aldrich), 1% sucrose, 0.7% plant agar (Duchefa) growth medium plates (120×120 mm square petri-dishes; Gosselin) at pH 5.6 in vertical orientation at 23° C. with 16 h of light per day. 12 h prior to the start of the experiments, 4 days post-germination (dpg) seedlings were positioned onto fresh plates of identical MS media composition additionally supplemented with 0.01 M KCl.
Immediately prior to the experiments, the OEIPs were operated in a target solution of 10^−5 M KCl(aq), and the OEIP device tip was kept from drying excessively during sample loading and OEIP positioning. A Keithley 2612b SourceMeter (Keithley Instruments Inc, Cleveland, Ohio, USA) and custom LabVIEW (National Instruments Corporation, Austin, Tex., USA) software was use to source current and record voltage. The OEIP device was turned on immediately prior to the first imaging sequence and operated at a constant electrical current of 1 μA. For these experiments, the OEIP delivery tip was submerged in the MS media in close proximity (100-200 μm) to the root epidermal tissue (FIG. 3b,c) and was held at a fixed position in the growth MS media for the duration of each trial.

[3] = system: DII-Venus auxin-response reporter; assay: DII-Venus fluorescent auxin-response reporter seedlings, OEIP delivery; type: in vivo, Arabidopsis thaliana; conditions: for effect on DII-Venus fluorescence intensity: OEIP delivery to root tip, signal falls in presence of auxin
Description: The DII-Venus reporter is characterized by absence or reduction in fluorescent signal intensity in the presence of auxin or increasing auxin levels, respectively. Conversely, in DR5, the presence or gain of fluorescent signal intensity indicates presence or increase of auxin concentrations, respectively. The relative auxin abundance is visualized faster by DII-Venus than by DR5^15, because the DII-Venus signal relies on a protein degradation mechanism rather than the slower transcriptional and translational production mechanisms of DR5.
Using DII-Venus seedlings, the fluorescent signal intensity was monitored and onset of strong fluorescence reduction was observed between 30 to 60 min (FIG. 5a,b).
as §1, with “12 h prior to the start of the experiments, 4 days post-germination (dpg) seedlings were positioned onto fresh plates of identical MS media composition additionally supplemented with 0.01 M KCl.” left out
A custom reoriented macro confocal laser-scanning microscope with a vertical stage was used to acquire images (Bergman-Labora, Sweden). The macro confocal consisted of a horizontally placed AZ100 macroscope (Nikon, Japan) adapted with a specially built XYZ motorized stage (Prior Scientific fitted by Bergman-Labora) and supplied with diascopic white light and episcopic fluorescence light (Nikon). […] Excitation was at 488 nm and emission detected with a 525/50 filter. DII Venus fluorescence intensities from a single layer were normalized to initial intensity, averaged and compared (Standard deviation of the mean). […]

[4] = system: DR5rev:GFP auxin-response reporter; assay: DR5rev:GFP fluorescent auxin-response reporter seedlings, OEIP delivery to elongation zone; type: in vivo, Arabidopsis thaliana; conditions: root elongation zone
Description: A custom reoriented macro confocal laser-scanning microscope with a vertical stage was used to acquire images (Bergman-Labora, Sweden). The macro confocal consisted of a horizontally placed AZ100 macroscope (Nikon, Japan) adapted with a specially built XYZ motorized stage (Prior Scientific fitted by Bergman-Labora) and supplied with diascopic white light and episcopic fluorescence light (Nikon). A climate enclosure with passive humidification was designed to surround the stage area to keep plants in a humid, dark environment. The AZ100 macroscope was connected to a C2+ confocal laser scanning system (Nikon) equipped with lasers for 405 nm, 457/488/514 nm and 561 nm excitation and a transmitted light detector. […] Excitation was at 488 nm and emission detected with a 525/50 filter. DII Venus fluorescence intensities from a single layer were normalized to initial intensity, averaged and compared (Standard deviation of the mean). […]

Structure (SMILES)	activity in previous bioassays [1]	effect on root growth rate [2]	effect on DII-Venus fluorescence intensity [3]	effect on DR5 reporter fluorescent intensity [4]	root growth rate after 60 min of delivery ([2]; OEIP delivery at 1 μA, average of 5 trials, after 60 min) [μm min^−1]	root growth rate before the decrease ([2]; OEIP delivery at 1 μA, average of 5 trials, initial rate) [μm min^−1]	onset of strong fluorescence reduction ([3]; DII-Venus seedlings, OEIP delivery) [min]	onset of fluorescence in plant tissues [4] [h]
O=C(O)CC1C(=O)Nc2ccccc21 (centres unmarked) [oxIAA, 2-oxindole-3-acetic acid]	inactive	–	–	–	–	–	–	–
O=C(O)c1ccccc1 [benzoic acid]	–	maintained their growth rates	preserved their fluorescence	did not display alterations in fluorescent intensity	–	–	–	–
O=C(O)Cc1c[nH]c2ccccc12 [IAA, indole-3-acetic acid]	–	rapid decrease in growth rate	strong and significant decrease in fluorescence	signal continued to increase between 2 and 3 hours	2.4±0.7	4.7±1.0	30 to 60	1
